Reference: publication PMC10138714, “Evaluation of Some Safety Parameters of Dual Histamine H3 and Sigma-2 Receptor Ligands with Anti-Obesity Potential” (International Journal of Molecular Sciences, 2023)
One block for each molecule: values may come before it.

Experiments:
sigma-2 receptors = target: sigma-2 receptors; design: method as in earlier work; details: cited from earlier work
H3R = target: H3R; design: method as in PMID 34908391; details: cited from earlier work
rats = assay: Heart rate and ECG intervals in rats; type: in vivo, male Wistar rats; details: 10 mg/kg i.p.
Procedure: (§1) Blood pressure measurement and ECG were performed on male Wistar rats weighing 200–220 g (six months old). Locomotor activity and chimney tests were performed on adult male Albino Swiss (CD-1) mice weighing 18–22 g ([…]). The animals were obtained from an accredited animal house at the Faculty of Pharmacy, Jagiellonian University Medical College, Krakow, Poland. The experimental groups consisted of 6–8 animals. The animals were housed in constant temperature (22–24 °C) and humidity (40–60%) facilities, exposed to 12:12 h light/dark cycles, and were maintained on a standard pellet diet with tap water available ad libitum. Rats and mice were housed in pairs or 8 animals per home cage, respectively.
In vivo electrocardiographic measurements were performed using an ASPEL ASCARD B5 apparatus, standard lead II, and a paper speed of 50 mm/s. The study was carried out after a single administration of the test compounds (10 mg/kg i.p.). […] The following parameters were then calculated and analyzed: duration of PQ, QT, QRS, RR intervals, and heart rate.

mice [1] = assay: Locomotor activity in mice (activity cages, photobeam breaks); type: in vivo, male Albino Swiss (CD-1) mice; details: single i.p. 30 mg/kg b.w., vs vehicle group
Procedure: as §1
Locomotor activity was individually recorded for each animal using specifically designed activity cages made of clear Perspex (40 cm × 40 cm × 31 cm, Activity Cage 7441, Ugo Basile, Italy). The cages were supplied with I.R. horizontal beam emitters connected to a counter that records the light-beam interruptions. The compounds suspensions were administered as i.p. injections 30 min before testing. Control animals received injections of vehicles. Each mouse was placed in a cage for a 30 min habituation period. After that time, the number of breaks in the photobeams was measured for 5 min, which is the same time as the observation period used in other tests.

[2] = target: T1, human ERG potassium channel (Kv11.1) (Homo sapiens, UniProt Q12809); assay: Whole-cell automated patch clamp (QPatch16X), inhibition of hERG currents; type: cell-based
T1 construct: expressed in transfected cells
Procedure: Electrophysiology experiments were performed on a QPatch16X automatic patch clamp platform (Sophion Bioscience, Ballerup, Denmark). Chinese hamster ovary (CHO) cells stably expressing the human ERG potassium channel (Kv11.1) were cultured using standard procedures. On the day of the experiment, cells were collected from the culture flask using TrypLE Express solution (Life Technologies, Thermo Fisher Scientific, Carlsbad, California, United States) and resuspended in EX-CELL ACF CHO serum-free medium (Merck KGaA, Sigma-Aldrich, Darmstadt, Germany), supplemented with 25 mM HEPES, 100 U/mL penicillin/streptomycin, and 0.04 mg/mL soybean trypsin inhibitor (all components from Sigma Aldrich).
The cells were placed in the lidless microtube and located onboard the automated electrophysiology instrument, where they were automatically relocated to a built-in centrifuge.
Cells were transferred to pipetting wells of single-use 16-channel planar patch chip plates (QPlate 16X, Sophion Bioscience, Ballerup, Denmark) and gigaseals were formed upon application of a combined suction/voltage protocol in a standard protocol supplied by Sophion Bioscience for CHO cells. Once the whole-cell mode was obtained, the cells were kept in a holding potential of -90 mV between the programmed stimulation protocols.
Whole-cell potassium currents were measured in response to repeatedly executed voltage protocols constituted of the following steps: brief clamping to −50 mV (200 ms), subsequent depolarization to 20 mV for 4000 ms, and final repolarization to −50 mV when the outward tail current was measured for 4000 ms.
The average current peak values determined in the presence of particular concentrations of the compound tested were subjected to a sigmoidal dose–response curve fitting, where the bottom plateau parameter was constrained to 0. The IC50 values were then calculated from the obtained sigmoidal dose–response curves. Data were analyzed using QPatch Assay Software (v5.0, Sophion Bioscience, Ballerup, Denmark) and represent the mean of three experiments carried out on distinct cells.

normotensive rats = assay: Blood pressure in anesthetized normotensive rats (carotid artery cannulation); type: in vivo, male Wistar rats; details: single i.p. 10 mg/kg b.w., vs vehicle (1% Tween 80)
Procedure: as §1
Rats were anesthetized with thiopental (70 mg/kg) via i.p. injection. The left carotid artery was cannulated with polyethylene tubing filled with a heparin solution in saline to facilitate pressure measurements using a PowerLab Apparatus (ADInstruments, Sydney, Australia). After a 20 min stabilization period, the test compounds were administered i.p. at a dose of 10 mg/kg b.w. in a constant volume of 1 mL/kg b.w. Blood pressure was recorded immediately before administration and 5, 10, 15, 20, 30, 40, 50, and 60 min after the administration of the test compound [47].

[3] = system: rats fed a palatable diet; assay: Plasma AlaT, AspaT, gGT and ALP activity after repeated administration in rats fed a palatable diet; type: in vivo; details: 10 mg/kg b.w. i.p. repeated
Procedure: Standard diet ( 8% fats, 67% carbohydrates, and 25% proteins) contained 100 g feed—280 kcal. Rats fed a palatable diet had access to a diet consisting of milk chocolate with nuts, cheese, salted peanuts, and 7% condensed milk and simultaneously to standard feed (Labofeed B, Morawski Manufacturer Feed, Kcynia, Poland) for 4 weeks. The feeding was not in any way forced, and rats decided themselves when, what, and how much to eat. A palatable diet contained 100 g of peanuts—612 kcal; 100 mL of condensed milk—131 kcal; 100 g of milk chocolate—529 kcal; and 100 g of cheese—325 kcal.
The study evaluating the activities of alanine aminotransferase (AlaT), aspartate aminotransferase (AspaT), gamma-glutamyl transpeptidases (gGT), and alkaline phosphatase (ALP) was carried out after completing the excessive eating model experiments described in our previous work. Compounds were administered for twenty-eight days at a dose of 10 mg/kg b.w./day. On the 31st day of the experiment, 20 min after i.p. administration of heparin (5000 units/rat) and thiopental (70 mg/kg b.w.), blood was collected from the left carotid artery and then centrifuged at 600× g (15 min, 4 °C) in order to obtain the plasma. To determine the activities of AlaT, AapaT, gGT, and ALP in the plasma samples, a standard enzymatic spectrophotometric test (Biomaxima S.A., Lublin, Poland) was used.

σ1R = target: σ1R; design: method as in PMID 34908391; details: cited from earlier work
mice [4] = assay: Motor coordination in the chimney test; type: in vivo, male Albino Swiss (CD-1) mice; details: for % of Mice Impaired: chimney test, 30 min after injection, n = 8
Procedure: as §1
The effect of tested compounds on motor impairment were quantified with the chimney test of Boissier et al. (1960). The mice were trained before the test, and only the animals able to get out of the chimney within 1 min were used at the experimental stage. The selected mice were placed in a 25 cm-long and 2.5 cm in diameter […] tube, which was reversed so that the mice could leave it only by climbing up backward until they reached the other end. The test was performed 30 min after injection (i.p.) of the examined compounds. Motor impairment was indicated by the inability of the animals to climb up backwards in the transparent tube within 60 s.

σ2R = target: σ2R; design: method as in PMID 34908391; details: cited from earlier work

T1 sequence (Q12809 whole entry): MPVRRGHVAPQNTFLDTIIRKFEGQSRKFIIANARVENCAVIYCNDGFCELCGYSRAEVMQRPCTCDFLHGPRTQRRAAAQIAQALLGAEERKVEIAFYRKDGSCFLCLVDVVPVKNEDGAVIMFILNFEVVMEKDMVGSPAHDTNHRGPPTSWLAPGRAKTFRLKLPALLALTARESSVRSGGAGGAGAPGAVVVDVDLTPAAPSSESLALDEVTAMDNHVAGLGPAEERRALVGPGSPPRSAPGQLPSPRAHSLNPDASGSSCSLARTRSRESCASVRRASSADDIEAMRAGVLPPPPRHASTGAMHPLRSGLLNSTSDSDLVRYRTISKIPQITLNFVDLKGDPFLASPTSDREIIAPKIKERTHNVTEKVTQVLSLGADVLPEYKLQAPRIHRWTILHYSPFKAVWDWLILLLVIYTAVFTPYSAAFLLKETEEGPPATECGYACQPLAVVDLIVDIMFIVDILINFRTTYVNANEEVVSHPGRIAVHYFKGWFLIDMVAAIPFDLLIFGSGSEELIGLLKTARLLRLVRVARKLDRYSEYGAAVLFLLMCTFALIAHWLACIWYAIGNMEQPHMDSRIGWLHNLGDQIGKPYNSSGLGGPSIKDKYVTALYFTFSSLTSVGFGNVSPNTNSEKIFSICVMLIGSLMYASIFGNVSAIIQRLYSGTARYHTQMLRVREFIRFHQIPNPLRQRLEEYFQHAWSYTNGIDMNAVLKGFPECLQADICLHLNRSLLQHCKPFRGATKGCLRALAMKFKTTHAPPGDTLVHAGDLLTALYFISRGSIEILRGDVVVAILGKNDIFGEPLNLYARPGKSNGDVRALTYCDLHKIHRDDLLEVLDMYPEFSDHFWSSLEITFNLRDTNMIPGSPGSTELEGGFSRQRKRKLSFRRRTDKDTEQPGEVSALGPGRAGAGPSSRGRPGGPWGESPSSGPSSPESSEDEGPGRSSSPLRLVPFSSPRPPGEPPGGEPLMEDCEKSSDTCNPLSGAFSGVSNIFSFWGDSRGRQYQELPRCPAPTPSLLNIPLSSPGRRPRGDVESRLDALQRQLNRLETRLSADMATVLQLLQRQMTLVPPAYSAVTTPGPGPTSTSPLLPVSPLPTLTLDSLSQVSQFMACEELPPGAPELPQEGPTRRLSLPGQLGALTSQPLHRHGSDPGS

SMILES: Clc1ccc(CCCOCCCN2CCCCC2)cc1 [Pitolisant]
Ki (sigma-2 receptors): 6.5 nM

Locomotor activity (mice [1]): significant decrease | Plasma AspaT activity ([3]; relative to both control groups (standard or palatable feed)): higher AspaT activity | Plasma ALP activity ([3]; vs control group fed standard feed): greater ALP activity | Plasma gGT activity ([3]; vs palatable feed-fed control group): statistically lower gGT activity | % of Mice Impaired (mice [4]; 10 mg/kg i.p.): 25% | % of Mice Impaired (mice [4]; 20 mg/kg i.p.): 12.5% | % of Mice Impaired (mice [4]; 30 mg/kg i.p.): 25%
SMILES: c1ccc(-c2ccc(OCCCN3CCN(c4ccncc4)CC3)cc2)cc1 [KSK-61]
Ki (H3R): 21.1 nM | H3/σ1 (H3R; ratio of Ki values): 0.03 | H3/σ2 (H3R; ratio of Ki values): 0.20 | Heart rate (rats; time 0 min): 373.2 ± 20.3 beats/min | PQ (rats; time 0 min): 53 ± 1.6 ms | QRS (rats; time 0 min): 20.8 ± 0.8 ms | QT (rats; time 0 min): 56.3 ± 4.1 ms | Heart rate (rats; time 15 min): 369.5 ± 9.5 beats/min | PQ (rats; time 15 min): 52.8 ± 1.5 ms | QRS (rats; time 15 min): 21.5 ± 0.5 ms | QT (rats; time 15 min): 56.3 ± 2.2 ms | Heart rate (rats; time 30 min): 380.2 ± 30.5 beats/min | PQ (rats; time 30 min): 54.5 ± 3.5 ms | QRS (rats; time 30 min): 21.8 ± 1.1 ms | QT (rats; time 30 min): 58.8 ± 2.2 ms | Heart rate (rats; time 45 min): 349.5 ± 21.3 beats/min | PQ (rats; time 45 min): 53.3 ± 1.8 ms | QRS (rats; time 45 min): 21.8 ± 0.8 ms | QT (rats; time 45 min): 57.5 ± 4.3 ms | Heart rate (rats; time 60 min): 360.4 ± 20.3 beats/min | PQ (rats; time 60 min): 53 ± 1.6 ms | QRS (rats; time 60 min): 21.8 ± 0.4 ms | QT (rats; time 60 min): 55 ± 5.0 ms | IC50 ([2]; CHO cells stably expressing human ERG, whole-cell, mean of three experiments, read-out: Mean IC50 ± SEM, inhibition of hERG currents): 2660 ± 217 nM | Inhibition of hERG compared with verapamil ([2]; relative to reference compound verapamil): about five times weaker | Effect on blood pressure (normotensive rats): did not affect blood pressure | Ki (σ1R): 638 nM | σ1/σ2 (σ1R; ratio of Ki values): 5.90 | Effect on motor coordination (chimney test) (mice [4]; mice, 10-30 mg/kg i.p., Fisher exact probability test): decreases the ability to exit the chimney at all doses tested in one or two mice per group | Ki (σ2R): 108 nM
